This is an account of results in ChEMBL document CHEMBL1132351, “Synthesis, in vitro pharmacology, and molecular modeling of very potent tacrine-huperzine A hybrids as acetylcholinesterase inhibitors of potential interest for the treatment of Alzheimer's disease” (J Med Chem, 1999).

Experiment [1] concerns the target Cholinesterase (Homo sapiens, UniProt P06276).
Description: Inhibition of butyrylcholinesterase (BChE) activity in human serum
The nature of experiment [2]: Drug concentration that reaches 50% of antagonism index (AI); No reversion at 10 uM concentration. The experiment is classed as functional.
Experiment [3] deals with T1, Acetylcholinesterase (Bos taurus, UniProt P23795).
T1 sequence (P23795 whole entry): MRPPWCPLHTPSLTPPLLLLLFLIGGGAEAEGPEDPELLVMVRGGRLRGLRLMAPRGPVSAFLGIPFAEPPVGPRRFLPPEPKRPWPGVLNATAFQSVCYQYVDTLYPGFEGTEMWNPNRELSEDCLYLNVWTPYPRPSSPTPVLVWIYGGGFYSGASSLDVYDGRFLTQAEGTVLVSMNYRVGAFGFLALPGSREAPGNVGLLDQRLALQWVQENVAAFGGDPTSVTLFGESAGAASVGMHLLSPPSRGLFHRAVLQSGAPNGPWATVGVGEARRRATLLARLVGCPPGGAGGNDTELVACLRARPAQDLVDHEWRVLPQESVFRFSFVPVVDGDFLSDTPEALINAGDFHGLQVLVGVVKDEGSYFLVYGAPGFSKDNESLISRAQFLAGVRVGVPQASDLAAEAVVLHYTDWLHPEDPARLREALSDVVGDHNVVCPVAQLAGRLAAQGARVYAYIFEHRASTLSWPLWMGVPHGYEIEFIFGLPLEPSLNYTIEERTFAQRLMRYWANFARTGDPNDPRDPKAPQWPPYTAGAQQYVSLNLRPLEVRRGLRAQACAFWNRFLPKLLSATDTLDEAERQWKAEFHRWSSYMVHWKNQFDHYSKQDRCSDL
Description: Inhibition of acetylcholinesterase (AChE)activity in bovine erythrocytes

Experiment [4] is described as follows: Drug concentration that reaches 50% of antagonism index (AI); No reversion at 10 uM concentration. The experiment is classed as functional.

Molecules are shown by their SMILES. Values joined by “and” are separate entries in the source; they are usually repeats but may differ in a detail not shown here. Equal values may be shown once. Where only a bound is given, the exact number is not on record here.

Chain of Cholinesterase (P06276 whole entry): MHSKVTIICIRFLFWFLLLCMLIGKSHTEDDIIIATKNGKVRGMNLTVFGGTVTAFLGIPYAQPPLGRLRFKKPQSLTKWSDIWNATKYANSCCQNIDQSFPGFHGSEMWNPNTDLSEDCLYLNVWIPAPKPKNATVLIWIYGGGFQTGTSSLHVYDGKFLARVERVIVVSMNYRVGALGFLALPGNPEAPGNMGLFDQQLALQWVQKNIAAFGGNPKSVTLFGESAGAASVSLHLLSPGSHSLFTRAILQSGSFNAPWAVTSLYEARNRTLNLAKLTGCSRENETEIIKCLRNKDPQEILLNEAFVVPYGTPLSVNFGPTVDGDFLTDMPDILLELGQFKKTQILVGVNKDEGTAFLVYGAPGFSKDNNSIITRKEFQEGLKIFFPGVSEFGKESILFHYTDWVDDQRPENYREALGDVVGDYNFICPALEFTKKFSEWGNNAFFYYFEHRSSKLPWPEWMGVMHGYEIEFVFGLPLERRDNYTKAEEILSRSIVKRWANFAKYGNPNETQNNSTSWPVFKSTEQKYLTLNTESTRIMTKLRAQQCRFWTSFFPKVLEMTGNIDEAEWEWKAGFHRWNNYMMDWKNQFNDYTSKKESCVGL

One may read the IC50 as the concentration that inhibits the measured activity by half. A higher IC50 goes with a need for much substance. `CCC1=CC2Cc3nc4cc(C)ccc4c(N)c3C(C1)C2` (centres undefined) [listing 1 of 2 here]: in experiment [1], the IC50 is 115 nM and 347 nM. As for `CCC1=CC2Cc3nc4cc(C)ccc4c(N)c3C(C1)C2` (centres undefined) [listing 2 of 2 here], the AI50 entry in experiment [2] is “No reversion”. `Nc1c2c(nc3ccccc13)CC1C=C(c3ccccc3)CC2C1` (racemic) came in with an IC50 in experiment [3] of 126 nM. Also, the AI50 entry in experiment [4] is “No reversion”.

Turning to `CC1=CC2Cc3nc4cccc(F)c4c(N)c3C(C1)C2` (racemic), the IC50 in experiment [1] is 543 nM; in experiment [3], 31.4 nM. With `CC1=CC2Cc3nc4cc(C)ccc4c(N)c3C(C1)C2` (racemic), in experiment [1], the midpoint of inhibition, the IC50, lay at 449 nM. In the case of `CCC1=CC2Cc3nc4cccc(C)c4c(N)c3C(C1)C2` (racemic), the IC50 is 512 nM in experiment [1] and 29.8 nM in experiment [3].

For the compound `CC1=CC2Cc3nc4ccccc4c(N)c3C(C1)C2` (racemic), the figures for the IC50 in experiment [1] and in experiment [3] were 126 nM and 65 nM, respectively. On the same counts, the results for `CCC1=CC2Cc3nc4cc(C)ccc4c(N)c3C(C1)C2` (racemic) are 208 nM and 12 nM. Turning to `CC(C)C1=CC2Cc3nc4ccccc4c(N)c3C(C1)C2` (racemic), in experiment [3], half-maximal inhibition (IC50) required 103 nM. The compound `CC(C)(C)C1=CC2Cc3nc4ccccc4c(N)c3C(C1)C2` (racemic) displayed an IC50 in experiment [3] of 267 nM. In experiment [3], `C=CCC1=CC2Cc3nc4ccccc4c(N)c3C(C1)C2` (racemic) came in with an IC50 of 150 nM. For the same compound, the AI50 entry in experiment [4] is “No reversion at 10 uM concentration”. With `CCC1=CC2Cc3nc4ccccc4c(N)c3C(C1)C2` (racemic), the IC50 in experiment [1] was determined as 79.3 nM; in experiment [3] it was 38.5 nM.

For the compound `CC1=C[C@@H]2Cc3nc4cc(F)ccc4c(N)c3[C@H](C1)C2` (racemic), the IC50 in experiment [1] amounted to 197 nM; in experiment [3], 8.5 nM. In the same order, the values of `CC1=CC2Cc3nc4ccccc4c(N)c3C(C1)C2` (single isomer, unassigned; (+)) are 316 nM and 329 nM.

Regarding `CCC1=CC2Cc3nc4ccccc4c(N)c3C(C1)C2` (single isomer, unassigned; (+)), the IC50 in experiment [1] came out at 109 nM; in experiment [3] it was 888 nM. `CC1=CC2Cc3nc4ccccc4c(N)c3C(C1)C2` (single isomer, unassigned; (-)) showed an IC50 in experiment [1] of 89 nM. Take `CCC1=CC2Cc3nc4ccccc4c(N)c3C(C1)C2` (single isomer, unassigned; (-)): the IC50 was determined as 63.3 nM in experiment [1] and 27.4 nM in experiment [3]. As to `C/C=C1\[C@H]2C=C(C)C[C@]1(N)c1ccc(=O)[nH]c1C2` [HUPERZINE A], the IC50 in experiment [1] was greater than 100000 nM.
